Drawing on US20230088214A1, “GLYCOLATE OXIDASE INHIBITORS FOR THE TREATMENT OF DISEASE” (BIOMARIN PHARMACEUTICAL INC., priority 2019, published 2023), this text covers IC50 for 27 compounds.

Molecules are shown by their SMILES. Bounds are passed on as bounds.

Assay [1] deals with T1, GO (Homo sapiens, UniProt Q9UJM8).
T1 sequence (Q9UJM8 1-370): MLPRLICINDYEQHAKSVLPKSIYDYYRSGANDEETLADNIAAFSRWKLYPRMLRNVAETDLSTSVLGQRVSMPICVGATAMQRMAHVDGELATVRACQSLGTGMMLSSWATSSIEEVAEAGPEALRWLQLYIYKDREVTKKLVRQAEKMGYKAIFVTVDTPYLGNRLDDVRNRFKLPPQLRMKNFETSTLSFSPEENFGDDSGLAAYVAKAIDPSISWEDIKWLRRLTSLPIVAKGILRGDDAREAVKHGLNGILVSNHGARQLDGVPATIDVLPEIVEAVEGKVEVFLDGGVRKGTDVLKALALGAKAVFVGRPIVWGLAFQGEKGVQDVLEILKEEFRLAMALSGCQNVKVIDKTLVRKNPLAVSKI
Briefly: GO Cellular Assay: CHO-Agt Cells Assay (Assay 3). The settings on record: 100 uM glycolic acid, glyoxylate by LC-MS at 2 hours, read-out: Range of IC50 values calculated from the cellular assays (Assay 3). Details: host or cells: CHO cells (A.T.C.C. CCl-61) and engineered CHO-Agt cells (from Fargue/Danpure). The format is cell-based, Chinese hamster. As for the experimental part: Assay 3: GO Cellular Assay: CHO-Agt Cells Assay
CHO cells (A.T.C.C. number CCl-61) and engineered CHO-Agt cells (provided by Dr. Sonia Fargue and Dr. Christopher J. Danpure, Biochem. J. (2006) 394, 409-416) were used as a screening cellular assay for primary compounds. The cells were seeded in 20,000 cell/well in 96 well plate and cultured at 37-C under O2/CO2 (19:1) in Ham's F12 medium (Invitrogen) supplemented with fetal calf serum (10%, v/v), L-glutamine (2 mM), penicillin (100 units/ml) and streptomycin (100 pug/ml). After overnight culture, the cells were treated with various concentrations of inhibitors in the presence of 100 uM glycolic acid in HEPES buffer, pH7.0 (Sigma-Aldrich, Cat #124737). Culture medium was harvested at 2 hours after treatment for glyoxylate analysis and cell viability was measured by Cell Titer-Glo (Fisher Scientific, Cat #. PR-G7570).
The glyoxylate was quantified using LC-MS method. An aliquot of 120 μL medium was removed from each well and protein precipitated by adding 240 μL IS (100 ng/ml 13C2-glyoxylic acid, Sigma-Aldrich, Cat #G755002). The mixture was vortex-mixed well and centrifuged at 3900 rpm for 15 min, 4° C. 100 μL supernatant was then mixed with 10 μL formic acid and 100 μL 400 μM DNPH (2,4-dinitrophenylhydrazine) (Shanghai Runjie Huaxue Shiji Ltd., Cat #A0000436) and the mixture was shaken for 30 minutes. A 3 μL mixture of reaction mixture was injected for LC-MS/MS analysis. (Behnam J T, Williams E L, Brink S, Rumsby G, Danpure C J., “Reconstruction of human hepatocyte glyoxylate metabolic pathways in stably transformed Chinese-hamster ovary cells”, Biochem J. 2006 Mar. 1; 394 (Pt 2):409-16.)

The target in assay [2] is T1, GO. Briefly: GO Enzymatic Assay (Assay 1). As to conditions: Table 4; class symbols without asterisk, GO Enzymatic Assay (Assay 1); read-out: Range. Details: purchased Novus Biologicals NBP1-72412. The format is biochemical. On the procedure: Assay 1: GO Enzymatic Assay
GO was incubated with its substrate, glycolate, in 50 mM potassium phosphate buffer, pH 7. […] The enzyme was optimized and the kinetics was determined.
Compound inhibition was determined by adding various concentrations of inhibitors in the GO enzyme assay. The IC50 value for each measured compound was generated from sigmoidal dose-response (variable slope) curves with GraphPad Prism software (GraphPad Software, Inc., San Diego, Calif.) using the percent inhibition of GO activity relative to DMSO control.

With `CCOC(=O)c1[nH]nnc1Sc1nc(-c2ccc(Cl)c(Cl)c2)cs1` [Compound 1, ethyl 4-((4-(3,4-dichlorophenyl)thiazol-2-yl)thio)-1H-1,2,3-triazole-5-carboxylate], the IC50 in assay [1] is greater than 10000 nM.
On the same count and under the same terms, the result for `O=C(OC1CC1)c1[nH]nnc1Oc1ccc2cc(Br)ccc2c1` [Compound 110, cyclopropyl 4-((6-bromonaphthalen-2-yl)oxy)-1H-1,2,3-triazole-5-carboxylate] reads 1000 to 5000 nM; that for `CC(C)OC(=O)OCOC(=O)c1[nH]nnc1O[C@H]1CC[C@H](c2ccc(OC(F)(F)F)cc2)CC1` [Compound 302, ((isopropoxycarbonyl)oxy)methyl 4-(((trans)-4-(4-(trifluoromethoxy)phenyl)cyclohexyl)oxy)-1H-1,2,3-triazole-5-carboxylate], less than 1000 nM.
`O=C(O)c1[nH]nnc1O[C@H]1CC[C@H](c2ccc(-n3cccn3)cc2)CC1` [Compound 418, 4-(((trans)-4-(4-(1H-pyrazol-1-yl)phenyl)cyclohexyl)oxy)-1H-1,2,3-triazole-5-carboxylic acid]: the IC50 in assay [2] was less than 100 nM.
Still for that read-out and setting: the result for `O=C(O)c1[nH]nnc1O[C@H]1CC[C@H](c2ccc(OC(F)(F)F)c(Cl)c2)CC1` [Compound 419, 4-(((trans)-4-(3-chloro-4-(trifluoromethoxy)phenyl)cyclohexyl)oxy)-1H-1,2,3-triazole-5-carboxylic acid] reads less than 100 nM; that for `N#Cc1ccc([C@H]2C[C@H](Sc3nn[nH]c3C(=O)O)C2)cc1` [Compound 420, 4-(((trans)-3-(4-cyanophenyl)cyclobutyl)thio)-1H-1,2,3-triazole-5-carboxylic acid 2,2,2-trifluoroacetate], less than 100 nM.
Same read-out and setting: in the case of `O=C(O)c1[nH]nnc1S[C@H]1CC[C@H](c2ccc(OC(F)(F)F)cc2)CC1` [Compound 422, 4-(((trans)-4-(4-(trifluoromethoxy)phenyl)cyclohexyl)thio)-1H-1,2,3-triazole-5-carboxylic acid] it was less than 100 nM; in that of `N#Cc1ccc(COc2cc(Oc3nn[nH]c3C(=O)O)ccc2Cl)cc1` [Compound 423, 4-(4-chloro-3-((4-cyanobenzyl)oxy)phenoxy)-1H-1,2,3-triazole-5-carboxylic acid], less than 100 nM; in that of `O=C(O)c1[nH]nnc1O[C@H]1CC[C@H](c2ccc(F)cc2F)CC1` [Compound 424, 4-(((trans)-4-(2,4-difluorophenyl)cyclohexyl)oxy)-1H-1,2,3-triazole-5-carboxylic acid 2,2,2-trifluoroacetate], less than 100 nM.
On the same count and under the same terms, in the case of `O=C(O)c1[nH]nnc1O[C@H]1CC[C@H](c2ccc(-c3nnc[nH]3)cc2)CC1` [Compound 425, 4-(((trans)-4-(4-(4H-1,2,4-triazol-3-yl)phenyl)cyclohexyl)oxy)-1H-1,2,3-triazole-5-carboxylic acid] it was less than 100 nM; in that of `O=C(O)c1[nH]nnc1O[C@H]1C[C@H](c2ccc(N3CCCCC3)cc2)C1` [Compound 426, 4-((trans)-3-(4-(piperidin-1-yl)phenyl)cyclobutoxy)-1H-1,2,3-triazole-5-carboxylic acid 2,2,2-trifluoroacetate], less than 100 nM; in that of `O=C(O)c1[nH]nnc1S[C@H]1CC[C@H](c2cc(Cl)ccc2OC(F)(F)F)CC1` [Compound 430, 4-(((trans)-4-(5-chloro-2-(trifluoromethoxy)phenyl)cyclohexyl)thio)-1H-1,2,3-triazole-5-carboxylic acid], less than 100 nM.
As for `O=C(O)c1[nH]nnc1O[C@H]1CC[C@H](c2ccc(-c3nncs3)cc2)CC1` [Compound 431, 4-(((trans)-4-(4-(1,3,4-thiadiazol-2-yl)phenyl)cyclohexyl)oxy)-1H-1,2,3-triazole-5-carboxylic acid 2,2,2-trifluoroacetate], the IC50 in assay [2] was less than 100 nM.
On the same count and under the same terms, in the case of `O=C(O)c1[nH]nnc1S[C@H]1CC[C@H](c2ccc(N3CCCCC3)cc2)CC1` [Compound 432, 4-(((trans)-4-(4-(piperidin-1-yl)phenyl)cyclohexyl)thio)-1H-1,2,3-triazole-5-carboxylic acid 2,2,2-trifluoroacetate] it was less than 100 nM; in that of `O=C(O)c1[nH]nnc1O[C@H]1CC[C@H](c2ccc(-c3nnco3)cc2)CC1` [Compound 433, 4-(((trans)-4-(4-(1,3,4-oxadiazol-2-yl)phenyl)cyclohexyl)oxy)-1H-1,2,3-triazole-5-carboxylic acid], less than 100 nM; in that of `O=C(O)c1[nH]nnc1S[C@H]1C[C@H](c2ccc(N3CCCCC3)cc2)C1` [Compound 434, 4-(((trans)-3-(4-(piperidin-1-yl)phenyl)cyclobutyl)thio)-1H-1,2,3-triazole-5-carboxylic acid 2,2,2-trifluoroacetate], less than 100 nM.
Same read-out and setting: in the case of `O=C(O)c1[nH]nnc1O[C@H]1CC[C@H](c2ccc(N3CCCCC3)cc2)CC1` [Compound 436, 4-(((trans)-4-(4-(piperidin-1-yl)phenyl)cyclohexyl)oxy)-1H-1,2,3-triazole-5-carboxylic acid 2,2,2-trifluoroacetate] it was less than 100 nM.
For `CS(=O)(=O)c1ccc([C@H]2CC[C@H](Oc3nn[nH]c3C(=O)O)CC2)cc1` [Compound 438, 4-(((trans)-4-(4-(methylsulfonyl)phenyl)cyclohexyl)oxy)-1H-1,2,3-triazole-5-carboxylic acid], the IC50 in assay [2] was less than 100 nM.
As to `CS(=O)(=O)c1ccc([C@H]2CC[C@H](Sc3nn[nH]c3C(=O)O)CC2)cc1` [Compound 439, 4-(((trans)-4-(4-(methylsulfonyl)phenyl)cyclohexyl)thio)-1H-1,2,3-triazole-5-carboxylic acid 2,2,2-trifluoroacetate], the IC50 in assay [2] was less than 100 nM.
Still for that read-out and setting: the result for `O=C(O)c1[nH]nnc1O[C@H]1CC[C@H](c2ccc(N3CCCCC3)c(Cl)c2)CC1` [Compound 441, 4-(((trans)-4-(3-chloro-4-(piperidin-1-yl)phenyl)cyclohexyl)oxy)-1H-1,2,3-triazole-5-carboxylic acid 2,2,2-trifluoroacetate] reads less than 100 nM.
As for `O=C(O)c1[nH]nnc1Oc1ccc(Cl)c(OC2CC2)c1` [Compound 445, 4-(4-chloro-3-cyclopropoxyphenoxy)-1H-1,2,3-triazole-5-carboxylic acid], the IC50 in assay [2] is less than 100 nM.
On to `OCc1[nH]nnc1S[C@H]1CC[C@@H](c2ccc(OC(F)(F)F)cc2)CC1` [Compound 489, (4-(((cis)-4-(4-(trifluoromethoxy)phenyl)cyclohexyl)thio)-1H-1,2,3-triazol-5-yl)methanol], for which the IC50 in assay [1] is 1000 to 5000 nM.
Still for that read-out and setting: in the case of `OCc1[nH]nnc1Oc1ccc(-c2ccc(Cl)cc2)cc1` [Compound 493-2, (4-((4′-chloro-[1,1′-biphenyl]-4-yl)oxy)-1H-1,2,3-triazol-5-yl)methanol] it was 1000 to 5000 nM.
Still for that read-out and setting: in the case of `OCc1[nH]nnc1OC1CCN(c2cc(Cl)cc(Cl)c2)CC1` [Compound 494, (4-((1-(3,5-dichlorophenyl)piperidin-4-yl)oxy)-1H-1,2,3-triazol-5-yl)methanol] it was 5000 to 10000 nM; in that of `OCc1[nH]nnc1SC1CCN(c2cc(Cl)cc(Cl)c2)CC1` [Compound 495, (4-((1-(3,5-dichlorophenyl)piperidin-4-yl)thio)-1H-1,2,3-triazol-5-yl)methanol], greater than 10000 nM.
Consider `O=C(O)c1[nH]nnc1COC1CCN(c2cc(Cl)cc(Cl)c2)CC1` [Example 477, 4-(((1-(3,5-dichlorophenyl)piperidin-4-yl)oxy)methyl)-1H-1,2,3-triazole-5-carboxylic acid], for which, in assay [2], the IC50 is less than 100 nM.
Same read-out and setting: in the case of `O=C(O)c1[nH]nnc1COC1CCN(c2cc(Cl)ccc2Cl)CC1` [Example 481, 4-(((1-(2,5-dichlorophenyl)piperidin-4-yl)oxy)methyl)-1H-1,2,3-triazole-5-carboxylic acid] it was 100 to 1000 nM.
